What was measured:
[1] = test system: arthritic pain model in rat; assay: PIFIR model: uric acid-induced arthritic pain model in rat, antinociceptive activity; conditions: oral; for DE50: dose causing 50% of maximum possible effect, drug alone
Description: An arthritic pain model in rat was determined for said purpose. Data were interpreted by a Surface Synergistic Interaction analysis (ISS) and an isobolographic analysis to determine the interaction nature. ISS was calculated from the total antinociceptive effect produced by the combination after subtracting the antinociceptive effect produced by drug separately.
For this study Wistar female rats were used [Crl (WI) BR] weighing between 180 to 200 gr. […] Number of animals in experiment was kept minimal and animals were kept in a room with climate and light control with a 12-hour light/dark cycle.
At the completion of study rats were sacrificed.
Animals were anesthesized with ether in a chamber (Pyrex glass dryer with ether vapor). Nociception was induced through a 0.05 mL uric acid intraarticular (ia) injection suspended in mineral oil in knee joint from right back leg. The suspension was prepared by milling 3.0 g. of uric acid with 10 mL of mineral oil in a glass mortar with pestle (Pyrex). Intraarticular injection was carried out through patellar ligament using a 1 mL glass syringe (Beckton Dickinson LTA, Brazil) with a 5 mm 24-gauge needle. An electrode was implanted immediately after to the plantar surface of each back claw between plantar pads. […] Contact time between each electrode from rat limb and cylinder was registered. […] This time was determined as zero time for measuring antinociceptive effects; these effects were measured every 30 minutes during the following 4 hours. This allowed determining the time course for antinociceptive effects in the same animal. Antinociception was considered as a recovery of contact time. Data are expressed as Functionality percentage index (IF%, that is, contact time on injected leg by the contact time in left leg, control, multiplied by 100). For the purpose of this study, nociception induction in experimental animals was unavoidable. However, care was taken to prevent an unnecessary suffering. All experiments were performed between 7:00 am and 2:00 pm.
Study data, tables and figures are expressed as IF%. Curves for IF% vs time were prepared for each treatment and the corresponding course time was obtained. Antinociception was estimated as a recovery of IF%. Accumulated antinociceptive effect during the whole observation period (4 hours) was determined as the area below the curve (ABC) from time course to obtain a dose-response curve and for analyzing the total antinociceptive effect obtained by analgesic agent whether alone or in combination.
ABC was calculated for each drug combination and for each of the components. […] If the […] ABC was higher than the theoretical sum, the result was considered enhancement; when it was similar to the theoretical sum then was determined to show additive antinociceptive effects. […] All values for each treatment are average ± S. E. M., for six animals. ABC values for drug combinations were compared with expected values using the Student test.
Doses which caused 50% of maximum possible effect (DE50) of each drug were calculated by performing a linear regression analysis of the linear portion from dose-response curves. The isobologram was prepared by using the DE50 when drugs were delivered alone or in combination. […] DE50 value from combination total dose was calculated from the dose-response curve of combined drugs. Statistical significance between additive theoretical point and DE50 experimental value was validated by using the Student test.

[2] = cited from earlier work
[3] = test system: patients with Gouty arthritis; assay: Clinical study (Phase I): combination of Allopurinol/Meloxicam vs independent delivery, 52 weeks follow-up; type: in vivo; conditions: for Uric Acid Average, baseline / Uric Acid Average, at the end of study: Allopurinol 300 mg per day, Meloxicam 15 mg per day, or combination 300 mg/15 mg, n=50 per group; for Uric Acid Average, at the end of study: end of study (52 weeks)
Description: A clinical study was carried out assessing the efficacy of a combination of Allopurinol/Meloxicam vs independent delivery of Allopurinol and Meloxicam in patients with Gouty arthritis.
There were 150 patients with gout and with uric acid levels at least of 8 mg/dL randomly selected for this study.
Main validation criterion was uric acid concentration of 6 mg/dL, in the last 3 monthly determinations. Secondary validation criteria included a reduction of incidence in gout worsening events.

plasma proteins = conditions: cited from earlier work

Structure (SMILES): Oc1ncnc2[nH]ncc12 [Allopurinol]
- ABC ([1]; Allopurinol 10.0 mg/kg alone, 4 hours): 22.5 ± 9.3 au
- ABC ([1]; Allopurinol 17.78 mg/kg alone, 4 hours): 58.2 ± 23.7 au
- antinociceptive efficacy (ABC) ([1]; Allopurinol 56.23 mg/kg, 4 hours): 207.7 ± 24.7 au
- side effects in animals ([1]; Allopurinol at 100 mg/kg): did not cause side effects
- walking capability of treated rats ([1]; Meloxicam 0.18-5.62 mg/kg, Allopurinol 3.16-56.23 mg/kg): did not affect the walking capability
- DE50 [1]: 44.29 ± 0.06 mg/kg
- ingested drug excreted in stools ([2]; in vivo): About 20%
- global incidence of acute events ([3]; along 9 to 52 weeks, comparison between groups): similar
- Uric Acid Average, baseline [3]: 9 mg/dL
- Uric Acid Average, at the end of study [3]: 7 mg/dL
- adverse events reported (gastrointestinal upset) ([3]; number of events per group of 50 patients, 52 weeks): Six

Structure (SMILES): Cc1ccc(-c2cc(C(F)(F)F)nn2-c2ccc(S(N)(=O)=O)cc2)cc1 [Celecoxib]
- time to maximum plasma levels ([2]; after oral dose): about 3 hours
- dose recovered in feces ([2]; as metabolites): 57%
- dose recovered in urine ([2]; as metabolites): 27%
- half-life ([2]; clearance half-life): about 11 hours
- Plasmatic clearance ([2]; in vivo): about 500 mL/min
- distribution volume ([2]; in vivo): about 400 L

Structure (SMILES): Cc1cnc(NC(=O)C2=C(O)c3ccccc3S(=O)(=O)N2C)s1 [Meloxicam]
- ABC ([1]; Meloxicam 0.32 mg/kg alone, 4 hours): 65.0 ± 9.6 au
- ABC ([1]; Meloxicam 0.56 mg/kg alone, 4 hours): 98.7 ± 15.5 au
- ABC ([1]; Meloxicam 1.78 mg/kg alone, 4 hours): 279.0 ± 15.5 au
- antinociceptive efficacy (ABC) ([1]; Meloxicam 2.16 mg/kg (so in the source), 4 hours): 295.8 ± 14.9 au
- antinociceptive effect (ABC) ([1]; Meloxicam 3.16 mg/kg (maximum used dosage), 4 hours): 295.8 ± 14.9 au
- DE50 [1]: 0.86 ± 0.10 mg/kg
- bioavailability ([2]; oral): 89%
- adherence with plasma proteins (plasma proteins): > 99%
- Uric Acid Average, baseline [3]: 10 mg/dL
- Uric Acid Average, at the end of study [3]: 9 mg/dL
